Data taken from ChEMBL document CHEMBL1155656, “Thirteen novel cycloartane-type triterpenes from Combretum quadrangulare” (2000).
≈ marks a conversion by molar mass, not a printed value.

Assay: Cytotoxicity against mouse 26-L5 cells
Format: functional
Conditions: read-out: ED50 (the source's name)

| SMILES | EC50 [µg/mL] |
| --- | --- |
| C[C@H](CC[C@H](O)C(C)(C)O)[C@H]1CC[C@@]2(C)[C@@H]3CC[C@H]4[C@](C)(C(=O)O)[C@@H](O)C[C@H](O)[C@@]45C[C@@]35CC[C@]12C | > 100 |
| C=C(C)[C@H](O)CC[C@@H](C(=O)O)[C@H]1CC[C@@]2(C)[C@@H]3CC[C@H]4[C@](C)(C(=O)OC)[C@@H](O)C[C@H](O)[C@@]45C[C@@]35CC[C@]12C | > 100 |
| C[C@H](C/C=C\C(C)(C)O)[C@H]1CC[C@@]2(C)[C@@H]3CC[C@H]4[C@](C)(C(=O)O)[C@@H](O)C[C@H](O)[C@@]45C[C@@]35CC[C@]12C [QUADRANGULARIC ACID K] | 82.6 (≈ 169 µM) |
| COC(=O)[C@]1(C)[C@@H](O)C[C@H](O)[C@]23C[C@]24CC[C@]2(C)[C@@H]([C@@H](C/C=C/C(C)(C)OO)C(=O)O)CC[C@@]2(C)[C@@H]4CC[C@@H]13 [QUADRANGULARIC ACID F] | > 100 |
| C[C@H](CC[C@@H](O)C(C)(C)O)[C@H]1CC[C@@]2(C)[C@@H]3CC[C@H]4[C@](C)(C(=O)O)[C@@H](O)C[C@H](O)[C@@]45C[C@@]35CC[C@]12C [QUADRANGULARIC ACID L] | > 100 |
| C[C@H](CCC(=O)O)[C@H]1CC[C@@]2(C)[C@@H]3CC[C@H]4[C@](C)(C(=O)O)[C@@H](O)C[C@H](O)[C@@]45C[C@@]35CC[C@]12C [NORQUADRANGULARIC ACID A] | > 100 |
| C=C(C)C(=O)CC[C@@H](C(=O)O)[C@H]1CC[C@@]2(C)[C@@H]3CC[C@H]4[C@](C)(C(=O)O)[C@@H](O)C[C@H](O)[C@@]45C[C@@]35CC[C@]12C [QUADRANGULARIC ACID H] | > 100 |
| C=C(C)[C@@H](O)CC[C@@H](C(=O)O)[C@H]1CC[C@@]2(C)[C@@H]3CC[C@H]4[C@](C)(C(=O)OC)[C@@H](O)C[C@H](O)[C@@]45C[C@@]35CC[C@]12C [QUADRANGULARIC ACID G] | > 100 |
| COC(C)(C)/C=C/C[C@@H](C)[C@H]1CC[C@@]2(C)[C@@H]3CC[C@H]4[C@](C)(C(=O)O)[C@@H](O)C[C@H](O)[C@@]45C[C@@]35CC[C@]12C [QUADRANGULARIC ACID J] | 86.1 (≈ 171 µM) |
| C=C(C)[C@@H](O)CC[C@@H](CO)[C@H]1CC[C@@]2(C)[C@@H]3CC[C@H]4[C@](C)(C(=O)OC)[C@@H](O)C[C@H](O)[C@@]45C[C@@]35CC[C@]12C [METHYL QUADRANGULARATE] | 29.4 (≈ 56.7 µM) |
| C=C(CC[C@@H](C)[C@H]1CC[C@@]2(C)[C@@H]3[C@@H](O)C[C@H]4[C@](C)(C(=O)O)[C@@H](O)C[C@H](O)[C@@]45C[C@@]35CC[C@]12C)C(C)C | 37.3 (≈ 74.2 µM) |
